Assay results from US20260085053A1, “BENZOFURAN DERIVATIVES AS SIK INHIBITORS AND THE USE THEREOF” (BEONE MEDICINES I GMBH, priority 2023, published 2026).

Tests used:
[1] = biological target: T1, SIK1 kinase (aa1-303, Thermo Fisher) (Homo sapiens, UniProt P57059); experiment: Biochemical activities determination for SIK1 protein (TR-FRET); details: 110 uM ATP, 0.5 μM STK1 substrate
T1 construct: SIK1 kinase (aa1-303, Thermo Fisher); purchased Thermo Fisher
Procedure: 1. Biochemical Activities Determination for SIK1 Protein
(§1) Compounds were tested for inhibition of SIK1 kinase (aa1-303, Thermo Fisher) in assays based on the time-resolved fluorescence-resonance energy transfer (TR-FRET) methodology. The assays were carried out in 384-well low volume white plates in a reaction mixture containing SIK1 kinase, 110 uM ATP, 0.5 μM STK1 substrate and 0-10 μM compound in buffer containing 25 mM Tris, 0.01% Trition X-100, 0.5 mM EGTA, 5 mM MgCl2, 2.5 mM DTT, pH=7.5. The kinase was incubated with compounds for 60 minutes at room temperature and the reaction was initiated by the addition of ATP and STK1 substrate. After reaction at room temperature for 180 minutes, an equal volume of stop/detection solution was added according to the manufacture's instruction (CisBio Bioassays). The stop/detection solution contained STK Antibody-Cryptate and XL665-conjugated streptavidin (Cat: 62ST1PEC, Cisbio) in Detection Buffer (Cat: 62SDBRDF, Cisbio). Plates were sealed and incubated at room temperature for overnight, and the TR-FRET signals (ratio of fluorescence emission at 665 nm over emission at 620 nm with excitation at 337 nm wavelength) were recorded on a PHERAstar FS plate reader (BMG Labtech). Phosphorylation of STK1 substrate led to the binding of STK Antibody-Cryptate to the biotinylated SIK1 substrate, which places fluorescent donor (Eu^3+ crypate) in close proximity to the accepter (Streptavidin-XL665), thus resulting in a high degree of fluorescence resonance energy transfer from the donor fluorophore (at 620 nm) to the acceptor fluorophore (at 665 nm). […] The IC50 for each compound was derived from fitting the data to the four-parameter logistic equation by Dotmatics.

[2] = biological target: T2, SIK2 kinase (full length, Thermo Fisher) (Homo sapiens, UniProt Q9H0K1); experiment: Biochemical activities determination for SIK2 protein (TR-FRET); details: 80 uM ATP, 0.5 μM substrate
T2 construct: SIK2 kinase (full length, Thermo Fisher); purchased Thermo Fisher
T2 sequence (Q9H0K1 whole entry): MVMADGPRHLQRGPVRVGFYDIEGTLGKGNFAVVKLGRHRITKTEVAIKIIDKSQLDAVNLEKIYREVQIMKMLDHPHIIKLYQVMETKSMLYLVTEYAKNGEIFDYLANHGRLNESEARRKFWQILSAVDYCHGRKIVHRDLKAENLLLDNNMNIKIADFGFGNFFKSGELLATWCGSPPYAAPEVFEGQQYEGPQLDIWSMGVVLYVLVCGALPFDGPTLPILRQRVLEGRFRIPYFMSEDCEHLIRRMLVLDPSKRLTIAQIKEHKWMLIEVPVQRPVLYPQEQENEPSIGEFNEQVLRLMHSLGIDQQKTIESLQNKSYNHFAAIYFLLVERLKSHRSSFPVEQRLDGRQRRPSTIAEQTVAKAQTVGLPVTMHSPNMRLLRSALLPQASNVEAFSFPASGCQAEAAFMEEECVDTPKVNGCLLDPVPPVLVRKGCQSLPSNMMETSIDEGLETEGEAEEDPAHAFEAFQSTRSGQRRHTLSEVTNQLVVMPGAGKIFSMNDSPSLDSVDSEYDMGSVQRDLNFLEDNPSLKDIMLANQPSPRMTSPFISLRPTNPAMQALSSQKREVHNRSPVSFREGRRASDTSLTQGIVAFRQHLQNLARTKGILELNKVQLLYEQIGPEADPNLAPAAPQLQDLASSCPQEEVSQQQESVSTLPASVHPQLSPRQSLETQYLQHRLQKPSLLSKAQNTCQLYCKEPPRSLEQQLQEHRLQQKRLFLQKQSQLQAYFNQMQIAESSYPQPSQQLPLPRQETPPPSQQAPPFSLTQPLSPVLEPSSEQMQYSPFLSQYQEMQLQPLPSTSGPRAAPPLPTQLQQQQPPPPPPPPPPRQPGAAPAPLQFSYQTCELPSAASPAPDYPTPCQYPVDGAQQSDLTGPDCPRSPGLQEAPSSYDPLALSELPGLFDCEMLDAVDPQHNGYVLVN
Procedure: 2. Biochemical Activities Determination for SIK2 Protein
as §1, with “of SIK2” for “of SIK1”, “kinase (full length,” for “kinase (aa1-303,”, “containing SIK2” for “containing SIK1”, “kinase, 80” for “kinase, 110”, “μM […]” for “μM STK1”, “biotinylated STK1” for “biotinylated SIK1”

[3] = biological target: T3, SIK3 kinase (aa59-365, Thermo Fisher) (Homo sapiens, UniProt Q9Y2K2); experiment: Biochemical activities determination for SIK3 protein (TR-FRET); details: 125 uM ATP, 0.5 μM STK1 substrate
T3 construct: SIK3 kinase (aa59-365, Thermo Fisher); purchased Thermo Fisher
T3 sequence (Q9Y2K2 59-365): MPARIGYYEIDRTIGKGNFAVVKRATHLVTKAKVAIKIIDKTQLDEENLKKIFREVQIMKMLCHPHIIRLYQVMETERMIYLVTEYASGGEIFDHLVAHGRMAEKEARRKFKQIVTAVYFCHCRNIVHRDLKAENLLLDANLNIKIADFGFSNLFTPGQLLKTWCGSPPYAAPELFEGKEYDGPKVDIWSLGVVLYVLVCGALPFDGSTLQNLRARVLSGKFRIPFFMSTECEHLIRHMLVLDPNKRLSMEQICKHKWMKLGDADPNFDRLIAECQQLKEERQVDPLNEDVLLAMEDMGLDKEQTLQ
Procedure: 3. Biochemical Activities Determination for SIK3 Protein
Compounds were tested for inhibition of SIK3 kinase (aa59-365, Thermo Fisher) in assays based on the time-resolved fluorescence-resonance energy transfer (TR-FRET) methodology. The assays were carried out in 384-well low volume white plates in a reaction mixture containing SIK3 kinase, 125 uM ATP, 0.5 μM STK1 substrate and 0-10 μM compound in buffer containing 25 mM Tris, 0.01% Trition X-100, 0.5 mM EGTA, 5 mM MgCl2, 2.5 mM DTT, PH=7.5. The kinase was incubated with compound for 60 minutes at room temperature and the reaction was initiated by the addition of ATP and STK1 substrate. After reaction at room temperature for 180 minutes, an equal volume of stop/detection solution was added according to the manufacture's instruction (CisBio Bioassays). The stop/detection solution contained STK Antibody-Cryptate and XL665-conjugated streptavidin (Cat: 62ST1PEC, Cisbio) in Detection Buffer (Cat: 62SDBRDF, Cisbio). Plates were sealed and incubated at room temperature for overnight, and the TR-FRET signals (ratio of fluorescence emission at 665 nm over emission at 620 nm with excitation at 337 nm wavelength) were recorded on a PHERAstar FS plate reader (BMG Labtech). Phosphorylation of STK1 substrate led to the binding of STK Antibody-Cryptate to the biotinylated STK1 substrate, which places fluorescent donor (Eu^3+ crypate) in close proximity to the accepter (Streptavidin-XL665), thus resulting in a high degree of fluorescence resonance energy transfer from the donor fluorophore (at 620 nm) to the acceptor fluorophore (at 665 nm). […] The IC50 for each compound was derived from fitting the data to the four-parameter logistic equation by Dotmatics.

T1 sequence (P57059 1-303): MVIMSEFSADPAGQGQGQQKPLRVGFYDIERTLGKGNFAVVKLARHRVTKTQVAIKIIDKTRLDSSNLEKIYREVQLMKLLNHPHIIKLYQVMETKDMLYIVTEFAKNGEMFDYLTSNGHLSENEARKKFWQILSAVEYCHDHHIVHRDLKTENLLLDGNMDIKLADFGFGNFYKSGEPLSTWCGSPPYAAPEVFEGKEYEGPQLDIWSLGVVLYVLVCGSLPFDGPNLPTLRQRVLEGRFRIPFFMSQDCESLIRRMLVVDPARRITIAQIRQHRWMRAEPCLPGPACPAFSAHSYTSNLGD

IC50 [1]	IC50 [2]	IC50 [3]	Structure (SMILES)
647 nM	25 nM	54 nM	Cn1cc(-c2ccc3c(-c4cc5c(c(OC(F)F)c4)C(=O)N(CC(F)(F)F)CC5)coc3c2)cn1 [Example 13, 8-(difluoromethoxy)-6-(6-(1-methyl-1H-pyrazol-4-yl)benzofuran-3-yl)-2-(2,2,2-trifluoroethyl)-3,4-dihydroisoquinolin-1 (2H)-one]
671 nM	14 nM	60 nM	COc1cc(-c2coc3cc(-c4cn(C)cn4)ccc23)cc2c1C(=O)N(CC(F)(F)F)CC2 [Example 7, 8-methoxy-6-(6-(1-methyl-1H-imidazol-4-yl)benzofuran-3-yl)-2-(2,2,2-trifluoroethyl)-3,4-dihydroisoquinolin-1 (2H)-one]
2090 nM	144 nM	305 nM	CCc1nnc(-c2c(OC)cc(-c3coc4cc(-c5cnn(C)c5)ccc34)cc2OC)o1 [Compound 36, 2-(2,6-dimethoxy-4-(6-(1-methyl-1H-pyrazol-4-yl)benzofuran-3-yl)phenyl)-5-ethyl-1,3,4-oxadiazole]
> 10000 nM	310 nM	329 nM	Cc1ccc(-c2ccc3c(-c4cc5c(c(OC(F)F)c4)C(=O)N(CC(F)(F)F)CC5)coc3c2)nn1 [Example 14, 8-(difluoromethoxy)-6-(6-(6-methylpyridazin-3-yl)benzofuran-3-yl)-2-(2,2,2-trifluoroethyl)-3,4-dihydroisoquinolin-1 (2H)-one]
5450 nM	673 nM	882 nM	COc1cc(-c2coc3cc(-c4cnn(C)c4)ccc23)cc2c1C(=O)N(Cc1ccccc1)CC2 [Compound 31, 2-benzyl-8-methoxy-6-(6-(1-methyl-1H-pyrazol-4-yl)benzofuran-3-yl)-3,4-dihydroisoquinolin-1 (2H)-one]
537 nM	14 nM	31 nM	O=C1c2c(cc(-c3coc4cc(-c5cnn(C6CCOC6)c5)ccc34)cc2OC(F)F)CCN1CC(F)(F)F (stereo not drawn) [Compound 40, 8-(difluoromethoxy)-6-(6-(1-(tetrahydrofuran-3-yl)-1H-pyrazol-4-yl)benzofuran-3-yl)-2-(2,2,2-trifluoroethyl)-3,4-dihydroisoquinolin-1 (2H)-one]
5920 nM	79 nM	127 nM	COc1cc(-c2coc3cc(-c4cn(C)nc4F)ccc23)cc2c1C(=O)N(CC(F)(F)F)CC2 [Compound 22, 6-(6-(3-fluoro-1-methyl-1H-pyrazol-4-yl)benzofuran-3-yl)-8-methoxy-2-(2,2,2-trifluoroethyl)-3,4-dihydroisoquinolin-1 (2H)-one]
> 10000 nM	296 nM	334 nM	COc1ccc(-c2ccc3c(-c4cc5c(c(OC)c4)C(=O)N(CC(F)(F)F)CC5)coc3c2)cn1 [Example 9, 8-methoxy-6-(6-(6-methoxypyridin-3-yl)benzofuran-3-yl)-2-(2,2,2-trifluoroethyl)-3,4-dihydroisoquinolin-1 (2H)-one]
1130 nM	26 nM	34 nM	COc1cc(-c2coc3cc(OCCN4CC[C@H](F)C4)ccc23)cc(OC(F)F)c1C(=O)N[C@@H]1C[C@@H]1F [Compound 74, 2-(difluoromethoxy)-N-((1R,2S)-2-fluorocyclopropyl)-4-(6-(2-((S)-3-fluoropyrrolidin-1-yl)ethoxy)benzofuran-3-yl)-6-methoxybenzamide]
1270 nM	41 nM	45 nM	COc1cc(-c2coc3cc(OCCN4CCOCC4)ccc23)cc(OC(F)F)c1C(=O)N[C@@H]1C[C@@H]1F [Compound 69, 2-(difluoromethoxy)-N-((1R,2S)-2-fluorocyclopropyl)-6-methoxy-4-(6-(2-morpholinoethoxy)benzofuran-3-yl)benzamide]
> 10000 nM	653 nM	1560 nM	COc1cc(-c2coc3cc(OCCN4CCCC4)ccc23)cc(OC(F)F)c1C(=O)NC1CC1N (racemic) [Compound 131, N-(2-aminocyclopropyl)-2-(difluoromethoxy)-6-methoxy-4-(6-(2-(pyrrolidin-1-yl)ethoxy)benzofuran-3-yl)benzamide]
212 nM	4.9 nM	23 nM	COc1cc(-c2coc3cc(-c4cnn(C5CCN(C)CC5)c4)ccc23)cc2c1C(=O)N(CC(F)(F)F)CC2 [Compound 52, 8-methoxy-6-(6-(1-(1-methylpiperidin-4-yl)-1H-pyrazol-4-yl)benzofuran-3-yl)-2-(2,2,2-trifluoroethyl)-3,4-dihydroisoquinolin-1 (2H)-one]
24 nM	1.7 nM	3.9 nM	COc1cc(-c2coc3cc(-c4cnn(C5CCN(C)C5)c4)ccc23)cc(OC(F)F)c1C(=O)N[C@@H]1C[C@@H]1F (stereo partly drawn) [Compound 38, 2-(difluoromethoxy)-N-((1R,2S)-2-fluorocyclopropyl)-6-methoxy-4-(6-(1-(1-methylpyrrolidin-3-yl)-1H-pyrazol-4-yl)benzofuran-3-yl)benzamide]
1010 nM	34 nM	34 nM	COc1cc(-c2coc3cc(OCCN4CCC(C(F)(F)F)C4)ccc23)cc(OC(F)F)c1C(=O)N[C@@H]1C[C@@H]1F (stereo partly drawn) [Compound 76, 2-(difluoromethoxy)-N-((1R,2S)-2-fluorocyclopropyl)-6-methoxy-4-(6-(2-(3-(trifluoromethyl)pyrrolidin-1-yl)ethoxy)benzofuran-3-yl)benzamide]
8000 nM	114 nM	506 nM	O=C(NC1CC1)c1c(OC(F)F)cc(-c2coc3cc(OCCN4CCCC4)ccc23)cc1OC(F)F [Compound 123, N-cyclopropyl-2,6-bis(difluoromethoxy)-4-(6-(2-(pyrrolidin-1-yl)ethoxy)benzofuran-3-yl)benzamide]
> 10000 nM	167 nM	391 nM	COc1cc(-c2coc3cc(OCCN4CCOCC4)ccc23)cc2c1C(=O)N(CC(F)(F)F)CC2 [Compound 58, 8-methoxy-6-(6-(2-morpholinoethoxy)benzofuran-3-yl)-2-(2,2,2-trifluoroethyl)-3,4-dihydroisoquinolin-1 (2H)-one]
